Results as given in patent US8304238B2, “Cell culture medium and immobilized preparation of cell adhesion protein or peptide” (Nat'l Institute for Environmental Studies, priority 2003, dated 2012).
Where no end group is shown, it is not given here.

Key:
[1] = system: alveolar type II epithelial cells (T2 cells); test: Inhibition of T2 cell adhesion to immobilized cell adhesion peptide substrates by heparin treatment; format: cell-based; conditions: 24-hour culture
Description: 100 μg/ml of heparin solution was poured into a well prepared according to the method in Example 6, wherein the cell adhesion peptides were immobilized, and the incubation was conducted for 2 hours. The heparin solution was removed after heparin bound to the immobilized cell adhesion peptides, and T2 cell suspension was seeded on the well.
It is theoretically shown that after the cell adhesion peptides first bind to heparin and are covered with heparin, the cell adhesion receptors having heparin-like sugar chain (heparan sulfate) present on the cell surface, in other words, syndecan, a protein that belongs to heparan sulfate proteoglycan, cannot bind to the cell adhesion peptides by using the sugar chain part of the heparan sulfate, thereby the cell adhesion is inhibited.

[2] = system: alveolar type II epithelial cells (T2 cells); test: Binding strength (affinity) of immobilized LN peptides to T2 cells relative to immobilized FIB-1 (mixed immobilization, free FIB-1 competition); format: cell-based; set-up: key to Binding strength to T2 cells, Comprehensive evaluation: AA: extremely strongly binding/adhering; A: strongly binding/adhering; B: intermediately binding/adhering (as the same degree as FIB-1 peptide); C: more weakly binding/adhering than FIB-1 peptide
In short: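 MMAC-coated wells coated with FIB-1 (0.25 mg/ml) mixed with LN peptide (e.g. AG73) at varied ratios; free FIB-1 competition. T2 cells cultured serum-free 1 day; adhesion expressed relative to immobilized FIB-1 (100%). Relative binding strength derived from mixing ratio at transitional midpoint.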

[3] = system: alveolar type II epithelial cells (T2 cells); test: Inhibition by free cell adhesion peptides of T2 cell adhesion to coated cell adhesion proteins FN, Col I, LN, VN; format: cell-based; conditions: free peptide 0.25 mg/ml; serum-free, 1 day
[4] = system: alveolar type II epithelial cells (T2 cells); test: Inhibition of T2 cell adhesion by free peptide different from the immobilized peptide substrate; format: cell-based
In short: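 T2 cells cultured on immobilised peptide substrate, with a free peptide differing from the immobilised one added to the medium. Adhesion inhibition read as competition for syndecan binding.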

[5] = system: alveolar type II epithelial cells (T2 cells); test: Time course of cell adhesion/spreading of T2 cells on immobilized cell adhesion peptide substrates; format: cell-based; conditions: 24-hour culture
Description: Culture was conducted by using the cell adhesion peptides immobilized on a well and T2 cells, for 1-24 hours according to the method in Example 8.
As cell adhesion peptides, AG73 was used in B, E and M, FIB-1 was used in C, L and O, A3G72 was used in F, A4G82 was used in G and N, A5G71 was used in H, A5G77 was used in I, hA3G75 was used in J, and hA3G83 was used in K; FN was used as a standard substance in A and D.

[6] = system: alveolar type II epithelial cells (T2 cells); test: Static and forced stretching culture of T2 cells on MMAC-coated silicone wells with immobilized proteins or peptides; format: cell-based
Description: A silicone well coated with MMAC was obtained by pouring 0.5 ml of ethanol solution of 50 μg/ml of MMAC (ISP, International Specialty Products, USA) into a silicone well with a groove of 20 mm×20 mm×10 mm, absorbing excess solution, and conducting air-drying.
Into the silicone wells coated by the method described in Example 1, 10 μg/ml of cell adhesion protein solution of fibronectin (FN), laminin-1 (LN), dissolved in 0.1 M triethanolamine buffer solution of pH 8.8, or 0.25 mg/ml of cell adhesion peptide solution of FIB-1, AG73 was poured respectively, and the reaction was conducted for at least several hours at 37° C. to bind and immobilize these proteins or peptides having cell adhesion activity (see Example 6 described later for particulars of immobilization). Subsequently, alveolar type II epithelial cell (T2 cells) suspension was poured, 5×10^4/cm^2 per unit area, and the culture was started in a CO2 culture apparatus.
T2 cells, 2×10^5/cm^2 per unit area, were seeded on the silicone well wherein the cell adhesion proteins or peptides were immobilized, which had been prepared in an almost same manner as that of Example 2, and static culture was conducted for 1 day. After confirming that the seeded cells confluently spread all over the culture face, horizontal cell stretching was forcibly started at the stretching degree of twenty five percents and at the frequency of 15 times per minute, by using cell culture stretching apparatus (Scholar Tec), and the culture was continued one more day. After the culture was finished, photographs of cell adhesion state were taken with a phase contrast microscope (FIG. 2, top 4 rows).
T2 cells, 5×10^4/cm^2 per unit area, were seeded on the silicone well wherein the cell adhesion proteins or peptides were immobilized, which had been prepared in an almost same manner as that of Example 2, and static culture was conducted for 3 days. T2 cells grew in a manner similar to that shown in FIG. 1, 3d (results are not shown because they are overlapping). Then, the cells were subjected to the same stimuli of forced stretching as in Example 1, and the culture was continued one more day. After the culture was finished, photographs of cell adhesion state were taken with a phase contrast microscope (FIG. 2, middle 4 rows) (FN, 3dC-1dS, LN, 3dC-1dS, FIB-1, 3dC-1dS, and AG-73, 3dC-1dS).
Forced stretching culture was conducted for 3 days in an almost same manner as stretching culture of Example 4. After the culture was finished, photographs of cell adhesion state were taken with a phase contrast microscope (FIG. 2, bottom 4 rows) (FN, 3dC-3dS, LN, 3dC-3dS, FIB-1, 3dC-3dS, and AG-73, 3dC-3dS).

[7] = system: alveolar type II epithelial cells (T2 cells); conditions: known, usual requirement; cited from earlier work

YAVTGRGDSPAS [reference compound]
Inhibition of cell adhesion to immobilized peptide by heparin treatment ([1]; 100 μg/ml heparin 2 hours): no inhibition | Inhibition degree of cell adhesion, Heparin ([1]; immobilized peptide treated with 100 μg/ml heparin 2 hours): No | Binding strength to T2 cells, Comprehensive evaluation ([2]; classification relative to FIB-1 peptide): B | Binding strength to T2 cells, Ratio to FIB-1 ([2]; inverse of mixing ratio at transitional midpoint, FIB-1 0.25 mg/ml, MMAC-coated well): (1) | Inhibition of adhesion of T2 cells to FN, Col I, LN and VN by free peptide [3]: does not exhibit inhibitory effect | Inhibition by free peptide of T2 cell adhesion to immobilized AG73 ([4]; AG73 (etc.) immobilized): no inhibition occurred | Inhibition by free peptide of T2 cell adhesion to immobilized AG73 and A4G82 peptides ([4]; AG73 and A4G82 immobilized): could not inhibit | Inhibition by free peptide of T2 cell adhesion to immobilized AG81.2 and AG73T ([4]; AG81.2 and AG73T immobilized): inhibited the adhesion | Inhibition by free peptide of T2 cell adhesion to immobilized FIB-1 ([4]; FIB-1 immobilized): competitively inhibited | Cell adhesion/spreading on immobilized peptide [5]: almost all cells had finished spreading | Reorientation of T2 cells under forced stretching ([6]; 1 day static, 1 day stretching (1dC-1dS), 25 percent, 15 times per minute): spread in an elongated shape to a direction perpendicular to the direction of forced stretching | Change of type II epithelial cells into a shape like type I epithelial cells ([6]; 3 days static, 3 days stretching (3dC-3dS)): less observed | Concentration of free FIB-1 peptide required to inhibit adhesion to FN [7]: ≥ 1 mg/mL
